In brackets after ≈: the same amount, converted by molar mass. Activity calls are given as the source filed them. The rule behind the calls is not given here. Where a SMILES comes first, the peptide text is derived from it.
Key:
[1] = test system: Vibrio parahaemolyticus; assay: Induction of bacterial resistance in Vibrio parahaemolyticus ATCC17802 assessed as fold increase in MIC treated over 30 serial passages measured after 24 hrs; type: functional
[2] = test system: Vibrio parahaemolyticus; assay: Antimicrobial activity against Vibrio parahaemolyticus ATCC17802 by two fold broth microdilution method; type: functional
[3] = test system: Bacillus cereus; assay: Antimicrobial activity against clinical isolates Bacillus cereus by two fold broth microdilution method; type: functional
[4] = test system: Staphylococcus aureus; assay: Antimicrobial activity against Staphylococcus aureus ATCC25923 by two fold broth microdilution method; type: functional; details: read-out: MIC
[5] = test system: Escherichia coli; assay: Antimicrobial activity against Escherichia coli ATCC27622 by two fold broth microdilution method; type: functional
[6] = test system: Staphylococcus aureus; assay: Antimicrobial activity against clinical isolates Staphylococcus aureus by two fold broth microdilution method; type: functional
[7] = test system: Staphylococcus aureus; assay: Bactericidal activity against Staphylococcus aureus ATCC25923 assessed as killing rate at 0.5 X MIC measured upto 180 min by bacterial killing kinetic assay; type: functional, organism-based
[8] = test system: Escherichia coli; assay: Bactericidal activity against Escherichia coli ATCC25722 assessed as killing rate at 0.5 X MIC measured upto 180 min by bacterial killing kinetic assay; type: functional, organism-based
[9] = test system: Vibrio parahaemolyticus; assay: Bactericidal activity against Vibrio parahaemolyticus ATCC17802 assessed as killing rate at 0.5 X MIC by measuring time limit of detection by bacterial killing kinetic assay; type: functional
[10] = test system: Cell membrane; assay: Induction of cytoplasmic membrane permeabilization in Vibrio parahaemolyticus […] assessed as calcein transmembrane diffusion into interior of gaint unilamellar vesicles by measuring time to equilibrium between inside and outside of vesicles at 2 ug/mL by confocal microscopy based calcein-AM leakage assay; type: cell membranes; details: dose 2.0 µg/ml
[11] = test system: Vibrio parahaemolyticus; assay: Induction of morphological changes in Vibrio parahaemolyticus ATCC17802 assessed as surface fibrosis incubated at 5 times MIC and measured after 60 mins by scanning electron microscopy based analysis; type: functional, organism-based
[12] = test system: Escherichia coli; assay: In vivo antibacterial activity against Escherichia coli ATCC25722 infected in Balb/c mouse model assessed as reduction in bacterial CFU count on skin at 20 ug/ml applied 4 hrs after infection and measured after 120 mins; type: functional, organism-based; details: dose 20.0 µg/ml
[13] = test system: Cell membrane; assay: Binding affinity to Vibrio parahaemolyticus ATCC17802 cell membrane assessed as increase in fluorescence intensity measured after 30 mins by flow cytometry analysis (reference value: 1.85%); type: cell membranes
[14] = test system: Cell membrane; assay: Induction of inner membrane permeabilization in Vibrio parahaemolyticus ATCC17802 assessed as calcein leakage at 5 times MIC by calcein-AM leakage assay; type: cell membranes; details: time <= 200.0 min, TDE = time-dependent effect
[15] = test system: Cell membrane; assay: Induction of inner membrane permeabilization in Vibrio parahaemolyticus ATCC17802 at 5 times MIC measured upto 200 mins by propidium iodide penetration assay; type: cell membranes
[16] = test system: HaCaT; assay: Cytotoxicity against human HaCaT cells incubated for 48 hrs by MTT assay; type: toxicity, cell-based; details: dose < 250 µg/ml
[17] = test system: Escherichia coli; assay: In vivo antibacterial activity against Escherichia coli ATCC25722 infected in Balb/c mouse model assessed as reduction in bacterial CFU count on skin at 20 ug/ml incubated for 6 hrs post infection and measured after 2 hrs post compound treatment; type: functional, organism-based; details: dose 20.0 µg/ml, time 8.0 hrs
[18] = test system: Cell membrane; assay: Induction of outer membrane permeabilization in Escherichia coli ATCC25722 assessed as increase fluorescence intensity measured upto 15 mins by NPN uptake assay; type: cell membranes
[19] = test system: Lipopolysaccharide (LPS); assay: Binding affinity to Escherichia coli LPS assessed as dissociation constant measured upto 600 sec by surface plasmon resonance imaging method
[20] = Effect on morphological changes in POPC/POPG (3:1) bilayer membrane assessed as formation of bulge aggregates by measuring the height of bulges at 2 ug/ml incubated for 40 mins under neutral pH and low ionic strength by atomic force microscopic analysis; type: cell membranes; details: Cell membrane, dose 2.0 µg/ml
[21] = test system: Vibrio parahaemolyticus; assay: Induction of morphological changes in Vibrio parahaemolyticus ATCC17802 assessed as massive cell collapse incubated at 5 times MIC and measured after 60 mins by scanning electron microscopy based analysis; type: functional, organism-based
[22] = test system: Cell membrane; assay: Binding affinity to Vibrio parahaemolyticus ATCC17802 cell membrane assessed as increase in fluorescence intensity measured after 120 mins by flow cytometry analysis (reference value: 1.88%); type: cell membranes
[23] = test system: Cell membrane; assay: Induction of outer membrane permeabilization in Escherichia coli ATCC25722 assessed as increase fluorescence intensity at 0.5 to 2 times of MIC by NPN uptake assay; type: cell membranes; details: time <= 15.0 min, TDE = time-dependent effect
[24] = test system: Cell membrane; assay: Induction of inner membrane permeabilization in Vibrio parahaemolyticus ATCC17802 assessed as increase in PI fluorescence intensity at 5 times MIC by propidium iodide penetration assay; type: cell membranes; details: time <= 200.0 min
[25] = test system: Cell membrane; assay: Induction of outer membrane permeabilization in Vibrio parahaemolyticus ATCC17802 assessed as increase fluorescence intensity at 0.5 to 2 times of MIC by NPN uptake assay; type: cell membranes; details: time <= 15.0 min, TDE = time-dependent effect
[26] = test system: Vibrio parahaemolyticus; assay: Induction of morphological changes in Vibrio parahaemolyticus ATCC17802 assessed as cellular inclusion leakage incubated at 5 times MIC and measured after 60 mins by scanning electron microscopy based analysis; type: functional, organism-based
[27] = test system: Peritoneal macrophage; assay: Cytotoxicity against mouse peritoneal macrophage cells incubated for 48 hrs by MTT assay; type: toxicity, cell-based; details: dose < 250 µg/ml
[28] = test system: Cell membrane; assay: Induction of outer membrane permeabilization in Vibrio parahaemolyticus ATCC17802 assessed as increase fluorescence intensity measured upto 15 mins by NPN uptake assay; type: cell membranes
[29] = test system: Lipopolysaccharide (LPS); assay: Binding affinity to Escherichia coli LPS assessed as LPS neutralizing activity measured after 5 mins by LPS neutralization assay
[30] = Hemolytic activity in human erythrocytes measured after 30 mins; type: toxicity, cell-based; details: erythrocyte, 0.5 h
[31] = test system: Cell membrane; assay: Induction of bacterial inner membrane permeabilization in Vibrio parahaemolyticus ATCC17802 assessed as calcein leakage from large unilamellar vesicles liposomes at 5 times MIC by fluorescence based microplate reader assay; type: cell membranes; details: time <= 60.0 min, TDE = time-dependent effect

Row | Compound | fold change (FC) [1] | MIC [2] [µg/mL] | MIC [3] [µg/mL] | MIC [4] [µg/mL] | MIC [5] [µg/mL] | MIC [6] [µg/mL] | Time [9] [min] | Activity [14] | Activity [15] | Activity [24] | further results
1 | CC1(C)S[C@@H]2[C@H](NC(=O)[C@H](N)c3ccccc3)C(=O)N2[C@H]1C(=O)O [AMPICILLIN] | 32 | 0.59 (≈ 1.69 µM) | 4.69 (≈ 13.4 µM) | 0.59 (≈ 1.69 µM) | 2.34 (≈ 6.7 µM) | > 200 | – | – | – | – | –
2 | CC[C@H](C)[C@H](NC(=O)[C@H](CCCCN)NC(=O)[C@H](CCCCN)NC(=O)[C@H](CC(C)C)NC(=O)[C@H](CCCCN)NC(=O)[C@H](CCCCN)NC(=O)[C@H](CC(C)C)NC(=O)[C@@H](NC(=O)[C@H](CCCCN)NC(=O)[C@H](CCCCN)NC(=O)[C@H](Cc1c[nH]c2ccccc12)NC(=O)[C@H](Cc1ccccc1)NC(=O)[C@H](CCCCN)NC(=O)[C@H](CCCNC(=N)N)NC(=O)[C@H](CCCNC(=N)N)NC(=O)[C@@H](N)CCCCN)C(C)C)C(=O)N[C@@H](CC(C)C)C(=O)O (H-KRRKFWKKVLKKLKKIL-OH) | – | 2.34 (≈ 1.04 µM) | 4.69 (≈ 2.09 µM) | 2.34 (≈ 1.04 µM) | 4.69 (≈ 2.09 µM) | 9.38 (≈ 4.19 µM) | 15 | – | – | – | Activity [7]: Active; Activity [8]: Active
3 | CC[C@H](C)[C@H](NC(=O)[C@H](CC(C)C)NC(=O)[C@H](CCCNC(=N)N)NC(=O)[C@H](CC(C)C)NC(=O)[C@H](CC(C)C)NC(=O)[C@H](CCCCN)NC(=O)[C@H](CCCCN)NC(=O)[C@H](Cc1ccccc1)NC(=O)[C@H](CC(C)C)NC(=O)CNC(=O)[C@@H](N)CC(C)C)C(=O)N[C@@H](CCCCN)C(=O)N[C@@H](CCCCN)C(=O)NCC(=O)N[C@@H](Cc1ccccc1)C(=O)N[C@@H](CCCCN)C(=O)N[C@@H](CCCCN)C(=O)O (H-LGLFKKLLRLIKKGFKK-OH) | 2 | 4.69 (≈ 2.31 µM) | 4.69 (≈ 2.31 µM) | 2.34 (≈ 1.15 µM) | 9.38 (≈ 4.62 µM) | 18.8 (≈ 9.23 µM) | 60 | Tde | Active | Active | TIME [10]: < 0.25 h; Activity [11]: Active; Activity [12]: Active; Activity [13]: 64.3%; Activity [16]: Dose-Dependent Effect; Activity [17]: Active; Activity [18]: Dose-Dependent Effect; Kd [19]: 49.4 µM; Activity [20]: 1 nm; Activity [21]: Active; Activity [22]: 99.4%; Activity [23]: Tde; Activity [25]: Tde; Activity [26]: Active; Activity [27]: Dose-Dependent Effect; Activity [28]: Dose-Dependent Effect; Activity [29]: inactive; Activity [30]: Toxic
4 | CC[C@H](C)[C@H](NC(=O)[C@H](CC(C)C)NC(=O)[C@H](CCCNC(=N)N)NC(=O)[C@H](CC(C)C)NC(=O)[C@H](CC(C)C)NC(=O)[C@H](CCCCN)NC(=O)[C@H](CCCCN)NC(=O)[C@H](Cc1ccccc1)NC(=O)[C@H](CC(C)C)NC(=O)CNC(=O)[C@@H](N)CC(C)C)C(=O)N[C@@H](CCCCN)C(=O)N[C@@H](CCCCN)C(=O)NCC(=O)N[C@@H](Cc1ccccc1)C(=O)N[C@@H](CCCCN)C(=O)N[C@@H](CC(C)C)C(=O)O (H-LGLFKKLLRLIKKGFKL-OH) | – | 4.69 (≈ 2.33 µM) | 9.38 (≈ 4.65 µM) | 1.17 (≈ 0.58 µM) | 9.38 (≈ 4.65 µM) | 9.38 (≈ 4.65 µM) | 30 | Tde | Active | Active | Activity [31]: Tde

Source: ChEMBL document CHEMBL5236579, “Hydrophobicity Determines the Bacterial Killing Rate of α-Helical Antimicrobial Peptides and Influences the Bacterial Resistance Development” (J Med Chem, 2022)
